{"source": "patent US12319752B2", "about": "“Heparin-binding cationic peptide self-assembling peptide amphiphiles useful against drug-resistant bacteria” (priority 2016, dated 2025)", "tested_on": "human dermal fibroblasts (HDF)", "assay": "Cytotoxicity, MTS cell viability assay", "type": "cell-based", "details": "HDF, concentrations higher than 20 μM, 24 h", "procedure": "To evaluate the cytotoxicity of the peptides, human dermal fibroblasts (HDF) were treated for 24 h, and cell viability was determined via MTS assays (FIG. 13).\nHuman dermal fibroblast cells (HDF, Detroit 551, ATCC #CCL-110) were cultured in Dulbecco's modified Eagle medium (DMEM; Fisher, Pittsburgh, PA) supplemented with 10% fetal bovine serum (FBS) and 1% penicillin/streptomycin for 24 h. All cells were cultured to 90% confluence in a 37° C., humidified, 5% CO2/95% air environment. Cells at passage numbers of 4-7 were used in these experiments.\nThe MTS cell viability assay kit (Promega, Madison, WI, USA) was used to determine cytotoxicity of the peptides. First, HDF cells were seeded on a 96-well plate at a cell density of 5,000 cells/well (equal to 15,385 cells/cm^2), and were incubated overnight for cell adhesion. After overnight incubation, the cell medium in each well was replaced by 100 μL of cell culture medium containing various concentrations of peptides (20 μM to 100 μM). The control samples were cells incubated in cell culture medium only. After 24 h, the treatment medium in each well was removed. The cells were washed with phosphate buffered saline (PBS, pH=7.4, Fisher, PA, USA) and 100 μL of fresh cell culture medium was added to each well, followed by the addition of 20 μL of the MTS reagent. After the cells were incubated for 2.5 h, the absorbance was measured at a wavelength of 490 nm by a spectrophotometer (SpectraMax M3, Molecular Devices, Molecular Devices, Sunnyvale, CA, USA). To estimate the cell numbers in each well, a standard curve expressing the linear correlation between different cell densities and optical densities (R^2>0.95) was plotted, and the cell numbers were determined with this standard curve from the OD490 value recorded in each sample. The cell viability of each sample was calculated by: Cell viability=[(cell density per mL of treated sample)/(cell density per mL of control sample)]×100%. Data were expressed by standard error of the mean (±S.E.M.) and N=3, *p<0.05 compared with control samples.", "note": "Residues, ends and D or L forms follow the SMILES beside them. *: point of attachment. Palmitoyl = CCCCCCCCCCCCCCCC(=O)*", "data": [{"smiles": "CCCCCCCCCCCCCCCC(=O)N[C@H](C(=O)N[C@H](C(=O)N[C@H](C(=O)N[C@H](C(=O)N[C@@H](CCCCN)C(=O)N[C@@H](CCCCN)C(=O)N[C@@H](CCCCN)C(=O)N[C@@H](CCCCN)C(=O)O)C(C)C)C(C)C)C(C)C)C(C)C", "note": "[CVK-PA, C16-V4K4 (SEQ ID NO: 1), reference compound] (Palmitoyl-VVVVKKKK-OH)", "values": [{"measurement": "cell death", "result": "over 40%"}]}]}
